Source: US10131653B2, “Heterocyclic compound” (TAKEDA PHARMACEUTICAL COMPANY LIMITED, priority 2015, dated 2018)
Where two headings read alike, the source gives them in different places.

Columns and labels:
[1] = target: T1, human OX1 receptor (Homo sapiens, UniProt O43613); experiment: Measurement of orexin receptor antagonistic activity (calcium fluorescence, FLIPRtetra); assay type: cell-based; details: CHO, read-out: Human Orexin1 receptor inhibition (at 10 μM)
T1 construct: expressed in transfected cells; host or cells: CHO cells
T1 sequence (O43613 1-425): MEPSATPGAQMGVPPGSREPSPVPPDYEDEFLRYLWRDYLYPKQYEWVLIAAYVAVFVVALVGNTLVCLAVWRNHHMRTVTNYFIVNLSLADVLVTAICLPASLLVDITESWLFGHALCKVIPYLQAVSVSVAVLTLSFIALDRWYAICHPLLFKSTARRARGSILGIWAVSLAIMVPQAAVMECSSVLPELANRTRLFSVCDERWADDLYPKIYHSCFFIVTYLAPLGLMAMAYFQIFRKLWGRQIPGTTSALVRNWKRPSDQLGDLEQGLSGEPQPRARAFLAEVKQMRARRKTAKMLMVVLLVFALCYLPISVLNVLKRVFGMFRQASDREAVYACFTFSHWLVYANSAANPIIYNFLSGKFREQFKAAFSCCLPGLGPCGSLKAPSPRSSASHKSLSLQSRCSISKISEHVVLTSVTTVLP
Method in brief: (§1)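 CHO cells expressing human OX1 or OX2 receptor, cultured one day. Compound in HBSS/20 mM HEPES/0.1% BSA added, then orexin-A at 1 nM final (OX1) or 0.3 nM final (OX2); calcium fluorescence by FLIPRtetra every 1 s for 2 min.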

[2] = target: T2, human OX2 receptor (Homo sapiens, UniProt O43614); experiment: as above; assay type: cell-based; details: CHO, read-out: Human Orexin2 receptor inhibition (at 10 μM)
T2 construct: expressed in transfected cells; host or cells: CHO cells
T2 sequence (O43614 1-444): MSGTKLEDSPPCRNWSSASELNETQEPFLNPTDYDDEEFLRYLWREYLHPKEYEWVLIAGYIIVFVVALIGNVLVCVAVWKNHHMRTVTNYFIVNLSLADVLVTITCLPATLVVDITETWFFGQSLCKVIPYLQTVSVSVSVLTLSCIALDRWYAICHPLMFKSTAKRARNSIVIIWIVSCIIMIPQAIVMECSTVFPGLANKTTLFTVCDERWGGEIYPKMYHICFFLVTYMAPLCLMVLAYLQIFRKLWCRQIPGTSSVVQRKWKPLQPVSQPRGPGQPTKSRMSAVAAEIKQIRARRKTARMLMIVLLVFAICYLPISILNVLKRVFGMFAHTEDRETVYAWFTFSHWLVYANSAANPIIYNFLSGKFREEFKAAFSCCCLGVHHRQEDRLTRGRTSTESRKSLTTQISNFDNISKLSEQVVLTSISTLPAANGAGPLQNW
Method in brief: as §1

[3] = 10 μM test compound, CHO cells expressing human OX1 receptor, OX-A 1 nM
[4] = 10 μM test compound, CHO cells expressing human OX2 receptor, OX-A 0.3 nM

| inhibition at 10 µM [1, 3] | inhibition at 10 µM [2, 4] | SMILES | inhibition at 10 µM [1] | inhibition at 10 µM [2] |
| --- | --- | --- | --- | --- |
| 85% | 101% | Cc1ccc(-n2nccn2)c(C(=O)N2CCN(c3cccc(C)n3)OC[C@H]2C)c1 [Example 124, ((6R)-6-methyl-2-(6-methylpyridin-2-yl)-1,2,5-oxadiazepan-5-yl) (5-methyl-2-(2H-1,2,3-triazol-2-yl)phenyl)methanone] |  |  |
| 68% | 98% | Cc1ccnc(N2CCN(C(=O)c3cc(C)ccc3-n3nccn3)[C@H](C)CO2)c1 [Example 125, ((6R)-6-methyl-2-(4-methylpyridin-2-yl)-1,2,5-oxadiazepan-5-yl) (5-methyl-2-(2H-1,2,3-triazol-2-yl)phenyl)methanone] |  |  |
| 96% | 97% | COc1cccc(N2CCN(C(=O)c3cc(C)ccc3-n3nccn3)[C@H](C)CO2)n1 [Example 126, ((6R)-2-(6-methoxypyridin-2-yl)-6-methyl-1,2,5-oxadiazepan-5-yl) (5-methyl-2-(2H-1,2,3-triazol-2-yl)phenyl)methanone] |  |  |
| 66% | 86% | Cc1ccc(-n2nccn2)c(C(=O)N2CCN(c3cc(C(F)(F)F)ccn3)OC[C@H]2C)c1 [Example 127, (5-methyl-2-(2H-1,2,3-triazol-2-yl)phenyl) ((6R)-6-methyl-2-(4-(trifluoromethyl)pyridin-2-yl)-1,2,5-oxadiazepan-5-yl)methanone] |  |  |
| 99% | 96% | Cc1ccc(-n2nccn2)c(C(=O)N2CCN(c3cccc(C(F)(F)F)n3)OC[C@H]2C)c1 [Example 128, (5-methyl-2-(2H-1,2,3-triazol-2-yl)phenyl) ((6R)-6-methyl-2-(6-(trifluoromethyl)pyridin-2-yl)-1,2,5-oxadiazepan-5-yl)methanone] |  |  |
| 38% | 86% | Cc1ccc(-n2nccn2)c(C(=O)N2CCN(c3nc(C)cnc3C)OC[C@H]2C)c1 [Example 129, ((6R)-2-(3,6-dimethylpyrazin-2-yl)-6-methyl-1,2,5-oxadiazepan-5-yl) (5-methyl-2-(2H-1,2,3-triazol-2-yl)phenyl)methanone] |  |  |
|  |  | Cc1ccc(-n2nccn2)c(C(=O)N2CCN(c3cn4ccccc4n3)OC[C@H]2C)c1 [Example 130, ((6R)-2-(imidazo[1,2-a]pyridin-2-yl)-6-methyl-1,2,5-oxadiazepan-5-yl) (5-methyl-2-(2H-1,2,3-triazol-2-yl)phenyl)methanone] | 62% | 56% |
|  |  | Cc1cncc(N2CCN(C(=O)c3cc(C)ccc3-n3nccn3)[C@H](C)CO2)c1 [Example 131, ((6R)-6-methyl-2-(5-methylpyridin-3-yl)-1,2,5-oxadiazepan-5-yl) (5-methyl-2-(2H-1,2,3-triazol-2-yl)phenyl)methanone] | -7% | 38% |
| 10% | 67% | COc1cncc(N2CCN(C(=O)c3cc(C)ccc3-n3nccn3)[C@H](C)CO2)c1 [Example 132, ((6R)-2-(5-methoxypyridin-3-yl)-6-methyl-1,2,5-oxadiazepan-5-yl) (5-methyl-2-(2H-1,2,3-triazol-2-yl)phenyl)methanone] |  |  |
|  |  | Cc1ccc(-n2nccn2)c(C(=O)N2CCN(c3cncc(Cl)c3)OC[C@H]2C)c1 [Example 133, ((6R)-2-(5-chloropyridin-3-yl)-6-methyl-1,2,5-oxadiazepan-5-yl) (5-methyl-2-(2H-1,2,3-triazol-2-yl)phenyl)methanone] | 11% | 70% |
|  |  | Cc1ccc(-n2nccn2)c(C(=O)N2CCN(c3ccc(F)c(Cl)c3)OC[C@H]2C)c1 [Example 134, ((6R)-2-(3-chloro-4-fluorophenyl)-6-methyl-1,2,5-oxadiazepan-5-yl) (5-methyl-2-(2H-1,2,3-triazol-2-yl)phenyl)methanone] | 92% | 80% |
|  |  | Cc1ccc(-n2nccn2)c(C(=O)N2CCN(c3ccc(F)cc3)OC[C@H]2C)c1 [Example 135, ((6R)-2-(4-fluorophenyl)-6-methyl-1,2,5-oxadiazepan-5-yl) (5-methyl-2-(2H-1,2,3-triazol-2-yl)phenyl)methanone] | 15% | 88% |
| 36% | 95% | Cc1ccc(-n2nccn2)c(C(=O)N2CCN(c3cc(C#N)ccn3)OC[C@H]2C)c1 [Example 136, 2-((6R)-6-methyl-5-(5-methyl-2-(2H-1,2,3-triazol-2-yl)benzoyl)-1,2,5-oxadiazepan-2-yl)isonicotinonitrile] |  |  |
|  |  | COc1ccnc(N2CCN(C(=O)c3cc(C)ccc3-n3nccn3)[C@H](C)CO2)c1 [Example 137, ((6R)-2-(4-methoxypyridin-2-yl)-6-methyl-1,2,5-oxadiazepan-5-yl) (5-methyl-2-(2H-1,2,3-triazol-2-yl)phenyl)methanone] | 93% | 100% |
|  |  | Cc1ccc(-n2nccn2)c(C(=O)N2CCN(c3cccc(-n4cccn4)n3)OC[C@H]2C)c1 [Example 138, ((6R)-6-methyl-2-(6-(1H-pyrazol-1-yl)pyridin-2-yl)-1,2,5-oxadiazepan-5-yl) (5-methyl-2-(2H-1,2,3-triazol-2-yl)phenyl)methanone] | 96% | 95% |
|  |  | Cc1ccc(-n2nccn2)c(C(=O)N2CCN(c3cc(C(F)F)ccn3)OC[C@H]2C)c1 [Example 139, ((6R)-2-(4-(difluoromethyl)pyridin-2-yl)-6-methyl-1,2,5-oxadiazepan-5-yl) (5-methyl-2-(2H-1,2,3-triazol-2-yl)phenyl)methanone] | 54% | 98% |
|  |  | Cc1ccc(-n2nccn2)c(C(=O)N2CCN(c3cccc(C#N)c3)OC[C@H]2C)c1 [Example 140, 3-((6R)-6-methyl-5-(5-methyl-2-(2H-1,2,3-triazol-2-yl)benzoyl)-1,2,5-oxadiazepan-2-yl)benzonitrile] | 21% | 88% |
|  |  | Cc1ccc(N2CCN(C(=O)c3cc(C)ccc3-n3nccn3)[C@H](C)CO2)nc1 [Example 141, ((6R)-6-methyl-2-(5-methylpyridin-2-yl)-1,2,5-oxadiazepan-5-yl) (5-methyl-2-(2H-1,2,3-triazol-2-yl)phenyl)methanone] | 71% | 99% |
|  |  | Cc1cc(C)nc(N2CCN(C(=O)c3cc(C)ccc3-n3nccn3)[C@H](C)CO2)c1 [Example 142, ((6R)-2-(4,6-dimethylpyridin-2-yl)-6-methyl-1,2,5-oxadiazepan-5-yl) (5-methyl-2-(2H-1,2,3-triazol-2-yl)phenyl)methanone] | 99% | 97% |
|  |  | Cc1ccc(-n2nccn2)c(C(=O)N2CCN(c3cc(C)nc(C)c3)OC[C@H]2C)c1 [Example 143, ((6R)-2-(2,6-dimethylpyridin-4-yl)-6-methyl-1,2,5-oxadiazepan-5-yl) (5-methyl-2-(2H-1,2,3-triazol-2-yl)phenyl)methanone] | 1% | 44% |
|  |  | Cc1ccc(-n2nccn2)c(C(=O)N2CCN(c3ccnc(C)c3)OC[C@H]2C)c1 [Example 144, ((6R)-6-methyl-2-(2-methylpyridin-4-yl)-1,2,5-oxadiazepan-5-yl) (5-methyl-2-(2H-1,2,3-triazol-2-yl)phenyl)methanone] | 14% | 12% |
|  |  | Cc1ccc(-n2nccn2)c(C(=O)N2CCN(c3ncccc3C)OC[C@H]2C)c1 [Example 145, ((6R)-6-methyl-2-(3-methylpyridin-2-yl)-1,2,5-oxadiazepan-5-yl) (5-methyl-2-(2H-1,2,3-triazol-2-yl)phenyl)methanone] | 25% | 82% |
|  |  | Cc1ccc(-n2nccn2)c(C(=O)N2CCN(c3ccnc(C(F)(F)F)c3)OC[C@H]2C)c1 [Example 146, (5-methyl-2-(2H-1,2,3-triazol-2-yl)phenyl) ((6R)-6-methyl-2-(2-(trifluoromethyl)pyridin-4-yl)-1,2,5-oxadiazepan-5-yl)methanone] | 66% | 88% |
| 60% | 101% | Cc1cc(C)nc(N2CCN(C(=O)c3ccccc3-n3nccn3)[C@H](C)CO2)n1 [Example 147, ((6R)-2-(4,6-dimethylpyrimidin-2-yl)-6-methyl-1,2,5-oxadiazepan-5-yl) (2-(2H-1,2,3-triazol-2-yl)phenyl)methanone] |  |  |
